Measurements as given in ChEMBL document CHEMBL1909046, “DrugMatrix in vitro pharmacology data”.

Assays:
[1] = target: Sodium-dependent noradrenaline transporter (Homo sapiens, UniProt P23975); test: DRUGMATRIX: Norepinephrine Transporter radioligand binding (ligand: [125I] RTI-55); type: cell membranes, MDCK, Membrane; settings: Not Active = under 50% inhibition at 10 µM
[2] = DRUGMATRIX: Phorbol Ester radioligand binding (ligand: [3H] PDBu); type: cell membranes, Mus musculus, ICR, Brain, Membrane; settings: Not Active = under 50% inhibition at 10 µM
Cytochrome P450 3A4 = Cytochrome P450 3A4 (Homo sapiens, UniProt P08684); settings: bti-tn-5b1-4; note: in other assays of this panel Not Active means under 50% inhibition at 10 µM
Cytochrome P450 3A4, sequence (P08684 whole entry): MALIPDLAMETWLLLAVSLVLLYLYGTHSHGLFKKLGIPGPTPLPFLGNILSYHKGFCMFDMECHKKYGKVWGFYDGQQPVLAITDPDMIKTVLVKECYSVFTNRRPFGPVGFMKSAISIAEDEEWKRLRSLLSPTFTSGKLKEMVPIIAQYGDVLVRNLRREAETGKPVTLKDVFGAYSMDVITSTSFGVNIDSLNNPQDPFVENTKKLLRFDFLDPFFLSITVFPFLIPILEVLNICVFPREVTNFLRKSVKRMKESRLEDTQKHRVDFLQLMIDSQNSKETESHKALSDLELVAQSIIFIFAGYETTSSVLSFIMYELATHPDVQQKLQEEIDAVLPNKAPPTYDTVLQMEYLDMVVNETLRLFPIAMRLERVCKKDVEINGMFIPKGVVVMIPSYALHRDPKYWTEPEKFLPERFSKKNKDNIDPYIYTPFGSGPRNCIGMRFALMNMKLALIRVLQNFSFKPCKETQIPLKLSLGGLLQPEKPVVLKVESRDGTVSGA

[3] = DRUGMATRIX: Imidazoline I2, Central radioligand binding (ligand: [3H] Idazoxan); type: cell membranes, Rattus norvegicus, Wistar, Cerebral cortex, Membrane; settings: Not Active = under 50% inhibition at 10 µM
[4] = target: Voltage-gated inwardly rectifying potassium channel KCNH2 (Homo sapiens, UniProt Q12809); settings: hek293; note: in other assays of this panel Not Active means under 50% inhibition at 10 µM
Voltage-gated inwardly rectifying potassium channel KCNH2, sequence (Q12809 whole entry): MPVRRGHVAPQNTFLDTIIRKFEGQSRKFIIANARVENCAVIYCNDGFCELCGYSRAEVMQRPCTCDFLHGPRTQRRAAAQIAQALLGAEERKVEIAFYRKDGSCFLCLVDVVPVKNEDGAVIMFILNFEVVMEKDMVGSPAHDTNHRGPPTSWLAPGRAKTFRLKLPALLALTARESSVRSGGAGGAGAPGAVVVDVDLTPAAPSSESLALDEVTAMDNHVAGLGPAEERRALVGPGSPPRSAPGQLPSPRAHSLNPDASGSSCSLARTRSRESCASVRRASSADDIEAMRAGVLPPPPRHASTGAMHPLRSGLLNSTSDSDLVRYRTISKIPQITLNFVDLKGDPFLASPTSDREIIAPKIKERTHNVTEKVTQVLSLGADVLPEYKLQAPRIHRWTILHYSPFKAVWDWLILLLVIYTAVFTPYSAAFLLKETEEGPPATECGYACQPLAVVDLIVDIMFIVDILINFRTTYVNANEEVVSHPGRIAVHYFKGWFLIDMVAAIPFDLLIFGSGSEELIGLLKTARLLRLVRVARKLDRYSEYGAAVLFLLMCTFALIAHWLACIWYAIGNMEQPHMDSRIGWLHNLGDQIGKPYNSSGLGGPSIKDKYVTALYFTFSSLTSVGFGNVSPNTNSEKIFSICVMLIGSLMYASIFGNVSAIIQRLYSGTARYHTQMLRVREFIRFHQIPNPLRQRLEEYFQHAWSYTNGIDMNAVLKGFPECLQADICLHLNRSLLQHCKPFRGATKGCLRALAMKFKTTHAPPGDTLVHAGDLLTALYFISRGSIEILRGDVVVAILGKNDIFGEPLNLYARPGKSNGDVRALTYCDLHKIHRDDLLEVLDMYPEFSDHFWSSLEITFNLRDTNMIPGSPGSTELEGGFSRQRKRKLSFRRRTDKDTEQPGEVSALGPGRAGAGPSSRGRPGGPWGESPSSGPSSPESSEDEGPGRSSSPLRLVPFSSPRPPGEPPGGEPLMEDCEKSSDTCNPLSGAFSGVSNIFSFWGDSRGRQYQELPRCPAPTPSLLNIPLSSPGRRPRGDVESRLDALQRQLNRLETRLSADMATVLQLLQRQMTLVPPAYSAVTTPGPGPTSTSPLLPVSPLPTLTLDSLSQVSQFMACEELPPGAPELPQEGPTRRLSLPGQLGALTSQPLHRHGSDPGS

Adenosine receptor A3 = target: T1, Adenosine receptor A3 (Homo sapiens, UniProt P0DMS8); type: cell membranes, CHO-K1, Membrane;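 note: radioligand binding assay with AB-MECA serving as the labeled ligand; in other assays of this panel Not Active means under 50% inhibition at 10 µM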
T1 sequence (P0DMS8 whole entry): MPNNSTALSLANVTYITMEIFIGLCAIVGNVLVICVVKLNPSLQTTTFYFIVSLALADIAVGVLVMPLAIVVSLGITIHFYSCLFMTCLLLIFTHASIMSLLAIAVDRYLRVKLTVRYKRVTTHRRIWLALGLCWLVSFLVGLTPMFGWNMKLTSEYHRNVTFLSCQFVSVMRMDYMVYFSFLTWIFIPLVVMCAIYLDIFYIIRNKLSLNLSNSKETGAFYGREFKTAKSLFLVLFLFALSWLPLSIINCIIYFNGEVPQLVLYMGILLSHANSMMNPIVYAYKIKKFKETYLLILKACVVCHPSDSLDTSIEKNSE

Vasopressin V1a receptor = Vasopressin V1a receptor (Homo sapiens, UniProt P37288); type: cell membranes, Membrane; settings: hek293; note: in other assays of this panel Not Active means under 50% inhibition at 10 µM
Vasopressin V1a receptor, sequence (P37288 whole entry): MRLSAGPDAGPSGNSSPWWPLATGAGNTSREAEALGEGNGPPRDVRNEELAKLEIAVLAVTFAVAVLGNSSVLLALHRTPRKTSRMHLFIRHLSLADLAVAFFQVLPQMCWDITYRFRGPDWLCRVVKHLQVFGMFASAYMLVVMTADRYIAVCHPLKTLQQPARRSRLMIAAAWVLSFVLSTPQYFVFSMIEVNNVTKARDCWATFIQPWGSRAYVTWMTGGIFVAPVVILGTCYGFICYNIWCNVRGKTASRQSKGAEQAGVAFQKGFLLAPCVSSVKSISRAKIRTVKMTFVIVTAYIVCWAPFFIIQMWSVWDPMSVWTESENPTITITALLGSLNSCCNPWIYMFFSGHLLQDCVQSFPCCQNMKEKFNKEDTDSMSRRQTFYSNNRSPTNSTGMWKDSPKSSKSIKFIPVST

Sodium-dependent noradrenaline transporter, sequence (P23975 whole entry): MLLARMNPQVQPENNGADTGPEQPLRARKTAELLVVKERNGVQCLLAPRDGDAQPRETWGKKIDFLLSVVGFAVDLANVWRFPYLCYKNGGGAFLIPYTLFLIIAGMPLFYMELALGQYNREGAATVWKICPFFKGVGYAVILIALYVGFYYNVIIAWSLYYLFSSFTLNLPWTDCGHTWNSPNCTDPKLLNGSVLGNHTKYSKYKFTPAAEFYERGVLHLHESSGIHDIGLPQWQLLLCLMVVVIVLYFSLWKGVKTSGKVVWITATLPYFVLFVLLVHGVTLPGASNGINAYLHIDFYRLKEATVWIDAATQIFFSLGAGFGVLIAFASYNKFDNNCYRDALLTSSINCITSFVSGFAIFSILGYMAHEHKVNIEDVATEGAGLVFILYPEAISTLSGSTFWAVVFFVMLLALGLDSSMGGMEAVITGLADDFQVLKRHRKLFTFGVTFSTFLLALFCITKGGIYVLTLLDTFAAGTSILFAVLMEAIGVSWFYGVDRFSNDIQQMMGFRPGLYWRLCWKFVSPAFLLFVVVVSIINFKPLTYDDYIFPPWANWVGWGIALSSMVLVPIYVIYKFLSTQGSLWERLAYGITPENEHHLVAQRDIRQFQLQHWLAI

Compound	IC50 ([1]; mdck)	IC50 [2]	Ki [2]	IC50 (Cytochrome P450 3A4)	Ki (Cytochrome P450 3A4)	IC50 [3]	Ki [3]	IC50 [4]	Ki [4]	IC50 (Adenosine receptor A3; cho-k1)	IC50 (Vasopressin V1a receptor)	IC50 ([1]; read-out: IC50) [nM]	Ki ([1]; read-out: Ki) [nM]	IC50 (Adenosine receptor A3; read-out: IC50) [nM]	Ki (Adenosine receptor A3; read-out: Ki) [nM]	IC50 ([3]; read-out: IC50) [nM]	Ki ([3]; read-out: Ki) [nM]	Ki ([1]; mdck)	Ki (Adenosine receptor A3; cho-k1)	Ki (Vasopressin V1a receptor)
O=C1c2ccccc2C(=O)C1c1ccccc1 [PHENINDIONE]	Not Active	Not Active	Not Active	Not Active	Not Active	Not Active	Not Active	Not Active	Not Active	Not Active	Not Active									
Clc1cc(Cl)c(OCC#CI)cc1Cl [HALOPROGIN]		Not Active	Not Active	Not Active	Not Active	Not Active	Not Active	Not Active	Not Active		Not Active	2770	2750	223	126					
C[C@H]1C[C@H]2[C@@H]3CCC4=CC(=O)C=C[C@]4(C)[C@@]3(F)[C@@H](O)C[C@]2(C)[C@@]1(O)C(=O)CO [BETAMETHASONE]	Not Active	Not Active	Not Active			Not Active	Not Active	Not Active	Not Active	Not Active	Not Active									
COc1ccc(Cl)cc1C(=O)NCCc1ccc(S(=O)(=O)NC(=O)NC2CCCCC2)cc1 [GLYBURIDE]	Not Active	Not Active	Not Active			Not Active	Not Active			Not Active	Not Active									
CC1(COc2ccc(CC3SC(=O)NC3=O)cc2)CCCCC1 (centres undefined) [CIGLITAZONE]		Not Active	Not Active	Not Active	Not Active	Not Active	Not Active	Not Active	Not Active		Not Active	2220	2200	3050	1720					
Cc1ccnc2c1NC(=O)c1cccnc1N2C1CC1 [NEVIRAPINE]	Not Active	Not Active	Not Active	Not Active	Not Active	Not Active	Not Active	Not Active	Not Active	Not Active	Not Active									
CNC[C@H](O)c1ccc(O)c(O)c1 [EPINEPHRINE]	Not Active	Not Active	Not Active	Not Active	Not Active			Not Active	Not Active	Not Active	Not Active					232	154			
CN(Cc1cc(Br)cc(Br)c1N)C1CCCCC1 [BROMHEXINE]	Not Active	Not Active	Not Active	Not Active	Not Active	Not Active	Not Active	Not Active	Not Active	Not Active	Not Active									
COPPER(II) OXIDE	Not Active	Not Active	Not Active	Not Active	Not Active	Not Active	Not Active	Not Active	Not Active	Not Active	Not Active							Not Active	Not Active	Not Active
CCN1C[C@]2(COC)[C@H](O)C[C@H](OC)[C@@]34[C@@H]5C[C@@]6(O)[C@H](OC(=O)c7ccccc7)[C@@H]5[C@@](OC(C)=O)([C@@H]([C@H](OC)[C@H]23)[C@@H]14)[C@@H](O)[C@@H]6OC [ACONITINE]	Not Active	Not Active	Not Active	Not Active	Not Active	Not Active	Not Active			Not Active	Not Active									
COc1ccc(C[C@H](N)C(=O)N[C@H]2[C@@H](O)[C@H](n3cnc4c(N(C)C)ncnc43)O[C@@H]2CO)cc1 [PUROMYCIN]	Not Active	Not Active	Not Active	Not Active	Not Active	Not Active	Not Active	Not Active	Not Active	Not Active	Not Active									
OC[C@H]1OC2C3[C@@H](CO)OC(O[C@H]4[C@H](O)[C@@H](O)[C@@H](O[C@H]5[C@H](O)[C@@H](O)[C@@H](O[C@H]6[C@H](O)[C@@H](O)[C@@H](O[C@H]7[C@H](O)[C@@H](O)[C@@H](O[C@H]8[C@H](O)[C@@H](O)[C@@H](O[C@H]9[C@H](O)[C@@H](O)C(OC1[C@H](O)[C@H]2O)O[C@@H]9CO)O[C@@H]8CO)O[C@@H]7CO)O[C@@H]6CO)O[C@@H]5CO)O[C@@H]4CO)[C@H](O)[C@H]3O	Not Active	Not Active	Not Active	Not Active	Not Active	Not Active	Not Active	Not Active	Not Active	Not Active	Not Active									
NC(N)=Nc1nc(CSCCC(N)=NS(N)(=O)=O)cs1 [FAMOTIDINE]	Not Active	Not Active	Not Active	Not Active	Not Active	Not Active	Not Active			Not Active	Not Active									
C[N+](C)(C)CCOP(=O)([O-])OC[C@H](O)CO	Not Active	Not Active	Not Active	Not Active	Not Active	Not Active	Not Active	Not Active	Not Active	Not Active	Not Active									
COc1cc(/C=C/C(=O)O)ccc1O [FERULATE]	Not Active	Not Active	Not Active	Not Active	Not Active	Not Active	Not Active	Not Active	Not Active	Not Active	Not Active									
COc1ccccc1OCCNCC(O)COc1cccc2[nH]c3ccccc3c12 (centres undefined) [CARVEDILOL]		Not Active	Not Active	Not Active	Not Active					Not Active	Not Active	538	533			1920	1280			
O=C(O)CNCP(=O)(O)O [GLYPHOSATE]	Not Active	Not Active	Not Active			Not Active	Not Active	Not Active	Not Active	Not Active	Not Active									
CCN1CCN(C(=O)N[C@@H](C(=O)N[C@@H]2C(=O)N3[C@@H]2SC(C)(C)[C@@H]3C(=O)O)c2ccccc2)C(=O)C1=O [PIPERACILLIN]	Not Active	Not Active	Not Active	Not Active	Not Active	Not Active	Not Active			Not Active	Not Active									
CC(C)NCC(O)COc1ccc(CC(N)=O)cc1 (centres undefined) [ATENOLOL]	Not Active	Not Active	Not Active			Not Active	Not Active			Not Active	Not Active									
CCN(CCO)CCCC(C)Nc1ccnc2cc(Cl)ccc12 (centres undefined) [HYDROXYCHLOROQUINE]	Not Active	Not Active	Not Active					Not Active	Not Active	Not Active	Not Active					479	319			
CC(C)(C#N)c1cc(Cn2cncn2)cc(C(C)(C)C#N)c1 [ANASTROZOLE]	Not Active	Not Active	Not Active			Not Active	Not Active	Not Active	Not Active	Not Active	Not Active									
CC[C@H]1OC(=O)[C@H](C)[C@@H](O[C@H]2C[C@@](C)(OC)[C@@H](O)[C@H](C)O2)[C@H](C)[C@@H](O[C@@H]2O[C@H](C)C[C@H](N(C)C)[C@H]2O)[C@](C)(O)C[C@@H](C)C(=O)[C@H](C)[C@@H](O)[C@]1(C)O [ERYTHROMYCIN]	Not Active	Not Active	Not Active	Not Active	Not Active	Not Active	Not Active			Not Active	Not Active									
NS(=O)(=O)c1cc(C(=O)O)c(NCc2ccco2)cc1Cl [FUROSEMIDE]	Not Active	Not Active	Not Active			Not Active	Not Active			Not Active	Not Active									
COc1cc([C@@H]2c3cc4c(cc3[C@H](O)[C@H]3COC(=O)[C@H]23)OCO4)cc(OC)c1OC [PODOFILOX]	Not Active	Not Active	Not Active			Not Active	Not Active	Not Active	Not Active	Not Active	Not Active									
C#C[C@]1(O)CC[C@H]2[C@@H]3CCC4=CC(=O)CC[C@@H]4[C@H]3CC[C@@]21C [NORETHINDRONE]	Not Active	Not Active	Not Active			Not Active	Not Active	Not Active	Not Active	Not Active	Not Active									
